Read-outs that look alike come from different tables or passages of the source.
Key:
in vitro [1] = test: in vitro; design: species or system CCD841, HEK293; details: human, hb2 cells, read-out: HB-2 Cells Viability (%)
in vitro [2] = test: in vitro; design: species or system HB2, CCD841; details: human, hek293 cells
OTUB2 (OTUB2A) = target: T1, OTUB2 (OTUB2A) (Homo sapiens, UniProt Q96DC9); design: Intact protein LC/MS covalent labelling, fragments in pools of five, 200 uM each, 4 °C; details: 24 h, 4 °C, pool of five; 200 µM; covalent
T1 construct: full length residues 1-234, E. coli BL21(DE3)-R3, His tag removed by TEV, construct 27312 Da
T1 sequence (Q96DC9 1-234): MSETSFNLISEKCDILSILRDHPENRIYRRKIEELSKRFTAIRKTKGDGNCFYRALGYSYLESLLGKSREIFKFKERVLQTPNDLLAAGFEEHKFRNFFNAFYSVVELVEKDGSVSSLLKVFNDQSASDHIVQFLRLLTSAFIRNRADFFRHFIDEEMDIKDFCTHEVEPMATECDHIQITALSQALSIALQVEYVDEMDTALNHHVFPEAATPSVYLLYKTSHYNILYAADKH

PCAF = target: T2, PCAF (Homo sapiens, UniProt Q92831); design: Intact protein LC/MS covalent labelling, fragments in pools of five, 200 uM each, 4 °C; details: 24 h, 4 °C, pool of five; 200 µM; covalent
T2 construct: gene KAT2B

NUDT7 = target: T3, NUDT7 (Homo sapiens, UniProt P0C024); design: Intact protein LC/MS covalent labelling, fragments in pools of five, 200 uM each, 4 °C; details: 24 h, 4 °C, pool of five; 200 µM; covalent
T3 construct: residues 14-235, E. coli, pNIC28-Bsa4, N-terminal His6 tag removed by TEV, construct 26672 Da

BSA = target: T4, BSA (Bos taurus, UniProt P02769); design: Intact protein LC/MS covalent labelling, fragments in pools of five, 200 uM each, 4 °C; details: 24 h, 4 °C, pool of five; 200 µM; covalent
T4 construct: gene ALB

in vitro [3] = test: in vitro; design: species or system HB2, HEK293; details: human, ccd841 cells

T2 sequence (Q92831 whole entry, the tested form may be a part): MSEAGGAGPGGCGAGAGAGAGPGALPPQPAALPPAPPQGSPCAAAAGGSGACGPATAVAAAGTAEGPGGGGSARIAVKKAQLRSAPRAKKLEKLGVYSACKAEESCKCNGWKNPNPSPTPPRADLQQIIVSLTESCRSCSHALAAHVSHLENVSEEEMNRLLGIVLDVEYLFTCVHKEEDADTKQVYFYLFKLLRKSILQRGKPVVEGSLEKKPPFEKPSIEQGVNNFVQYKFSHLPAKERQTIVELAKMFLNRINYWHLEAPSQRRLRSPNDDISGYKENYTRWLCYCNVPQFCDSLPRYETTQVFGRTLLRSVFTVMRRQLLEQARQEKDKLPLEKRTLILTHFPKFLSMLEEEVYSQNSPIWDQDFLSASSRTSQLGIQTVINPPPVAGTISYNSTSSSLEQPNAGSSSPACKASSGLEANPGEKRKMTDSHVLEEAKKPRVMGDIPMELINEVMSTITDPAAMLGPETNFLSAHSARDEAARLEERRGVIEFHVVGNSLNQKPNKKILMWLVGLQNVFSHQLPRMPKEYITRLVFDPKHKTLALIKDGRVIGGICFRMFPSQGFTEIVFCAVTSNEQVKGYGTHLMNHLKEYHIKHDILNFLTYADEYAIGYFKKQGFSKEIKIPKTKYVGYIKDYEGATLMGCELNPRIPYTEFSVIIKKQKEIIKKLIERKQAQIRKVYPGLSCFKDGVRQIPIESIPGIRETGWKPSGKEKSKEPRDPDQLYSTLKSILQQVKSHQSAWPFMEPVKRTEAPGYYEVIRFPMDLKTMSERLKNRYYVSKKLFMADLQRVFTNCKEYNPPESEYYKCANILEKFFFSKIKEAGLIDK
T4 sequence (P02769 whole entry, the tested form may be a part): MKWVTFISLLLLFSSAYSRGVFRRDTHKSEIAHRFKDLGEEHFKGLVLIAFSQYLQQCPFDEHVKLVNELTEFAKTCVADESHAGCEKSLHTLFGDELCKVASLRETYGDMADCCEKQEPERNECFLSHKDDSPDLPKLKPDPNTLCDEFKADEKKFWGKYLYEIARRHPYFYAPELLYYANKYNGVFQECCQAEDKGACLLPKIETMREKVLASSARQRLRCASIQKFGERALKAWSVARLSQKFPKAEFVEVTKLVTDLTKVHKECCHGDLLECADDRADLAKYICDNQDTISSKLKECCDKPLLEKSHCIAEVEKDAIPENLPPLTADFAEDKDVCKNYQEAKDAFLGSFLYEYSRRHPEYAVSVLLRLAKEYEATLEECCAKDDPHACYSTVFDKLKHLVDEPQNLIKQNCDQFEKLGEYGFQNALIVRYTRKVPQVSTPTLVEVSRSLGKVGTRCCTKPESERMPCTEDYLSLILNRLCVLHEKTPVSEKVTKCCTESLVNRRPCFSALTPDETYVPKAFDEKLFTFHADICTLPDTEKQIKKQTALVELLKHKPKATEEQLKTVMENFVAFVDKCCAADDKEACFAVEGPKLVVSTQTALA
T3 sequence (P0C024 14-235): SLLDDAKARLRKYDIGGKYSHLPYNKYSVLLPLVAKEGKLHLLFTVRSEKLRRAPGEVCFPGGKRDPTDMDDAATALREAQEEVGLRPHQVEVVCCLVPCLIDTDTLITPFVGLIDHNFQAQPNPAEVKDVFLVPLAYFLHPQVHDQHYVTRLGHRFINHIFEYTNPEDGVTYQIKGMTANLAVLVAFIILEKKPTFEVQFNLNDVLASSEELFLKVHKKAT

| Structure (SMILES) | viability at 48 h, 10 µM (in vitro [1]) | viability at 48 h, 10 µM (in vitro [2]) | OTUB2 (OTUB2 (OTUB2A)) | PCAF (PCAF) | NUDT7 (NUDT7) | BSA (BSA) | viability at 48 h, 10 µM (in vitro [3]) |
| --- | --- | --- | --- | --- | --- | --- | --- |
| C=CCNC(=O)NC(=O)CCl [PCM-0102709] | 90% | 75.3% | 0 | 0 | 0 | 0 | 77.7% |
| CC(c1ccccc1)N1CCN(C(=O)CCl)CC1.Cl (stereo not shown) [PCM-0102710] | 36.7% | 41.3% | 0.12 | 0 | 0 | 0 | 72.5% |
| O=C(CCl)NC(=O)c1ccc(Cl)cc1 [PCM-0102711] | 98.9% | 103% | 0 | 0 | 0 | 0 | 96.8% |
| C=CC(=O)NCC1COc2ccccc2O1 (stereo not shown) [PCM-0102713] | 99% | 76.1% | 0 | 0 | 0.16 | 0 | 102% |
| C=CC(=O)N1CCN(c2nccc3sccc23)CC1 [PCM-0102715] | 97.2% | 78.2% | 0 | 0 | 0 | 0 | 92.1% |
| C=CC(=O)NCC1CCCS1 (stereo not shown) [PCM-0102719] | 102% | 86.1% | 0 | 0 | 0 | 0 | 105% |
| C=CC(=O)N1CCOCC1c1cccn1C (stereo not shown) [PCM-0102721] | 102% | 97.2% | 0 | 0 | 0 | 0 | 92.8% |
| C=CC(=O)NC1(c2nnc[nH]2)CCC1 [PCM-0102722] | 102% | 105% | 0 | 0 | 0 | 0 | 96.7% |
| C=CC(=O)N1CCCC(C(C)NC(=O)NC(C)(C)C)C1 (stereo not shown) [PCM-0102723] | 105% | 99.2% | 0 | 0 | 0 | 0 | 109% |
| C=CC(=O)NCC1=CCCCC1 [PCM-0102726] | 105% | 89.9% | 0 | 0 | 0 | 0.1 | 99.1% |
| C=CC(=O)NCc1nnc(C(C)(C)C)s1 [PCM-0102727] | 105% | 100% | 0.18 | 0 | 0 | 0 | 108% |
| C=CC(=O)N(C)CC(=O)N1c2ccccc2NC(=O)CC1C (stereo not shown) [PCM-0102729] | 104% | 107% | 0 | 0 | 0 | 0 | 107% |
| O=C(CCl)NCc1ccc(F)cc1C(F)(F)F [PCM-0102733] | 86.6% | 68.8% | 0.33 | 0 | 0.06 | 0 | 79.1% |
| COC(=O)C1(NC(=O)CCl)CCCCC1 [PCM-0102734] | 98.3% | 112% | 0 | 0 | 0 | 0 | 95.1% |
| C#Cc1cccc(NC(=O)CCl)c1 [PCM-0102735] | 90.9% | 87% | 0.09 | 0 | 0 | 0 | 85.7% |
| O=C(CCl)Nc1ccc2c(c1)OC(F)(F)O2 [PCM-0102738] | 30% | 14.2% | 0.41 | 0 | 0 | 0 | 72.2% |

— paper PMC6556873, “Rapid Covalent-Probe Discovery by Electrophile-Fragment Screening” (Journal of the American Chemical Society, 2019)
